In patent US20260108547A1, “LEVERAGING L-FUCOSE-MEDIATED SIGNALING TO INDUCE MONOCYTE-DERIVED DENDRITIC CELL POLARIZATION” (H. LEE MOFFITT CANCER CENTER AND RESEARCH INSTITUTE, INC., priority 2022, published 2026):

Experiments:
SM1 tumors = assay: Flow cytometric profiling of tumors and draining lymph nodes, SM1 tumors in C57BL/6 mice fed ± L-fucose and treated ± anti-PD-1 (Table 2); assay type: in vivo, mouse
Description: Tumors of SW1 or SM1 melanoma cells from […] or C57BL/6 mice, respectively) were digested using 1× tumor digest buffer (0.5 mg/mL Collagenase I, 0.5 mg/mL Collagenase IV, 0.25 mg/mL Hyalyronidase V, 0.1 mg/mL DNAse I in HBSS (Millipore Sigma (St. Louis, MO)). Tumors were homogenized using the Miltenyi MACs dissociator. Red blood cells were lysed using ACK lysis buffer (Life Technologies, (Grand Island, NY)). Tumor homogenate cells were counted using a standard hemocytometer.
Total TILs were gated first to single cells (based on forward scatter height vs width, followed by side scatter height vs. width). Live cells were gated from the Zombie negative population from the population above. TILs were gated based on splenocyte size from a control spleen. Individual immune subpopulations were sub-gated from the total TIL population using the following staining criteria: CD3^+ for CD3^+ T cells; CD3^+/CD4^+/CD8^− for CD4^+T cells; CD3^+/CD4^−/CD8^+ for CD8^+ T cells, CD11c^+/CD11b^+ for DCs; either NK1.1 (for C57/BL6 mice) or DX5 (for C3H/HeJ) for NK cells; CD11b^+/GR1^+ for MDSC-like cells; and F4/80^+ for macrophages. Single-cell suspensions from tumor and spleen tissue were stained with Live/Dead Zombie NIR (Biolegend, (San Diego, CA)) at 1:1,000 in PBS for 20 min. […]

SW1 tumors = assay: SW1 tumor growth in NSG (immunodeficient) mice; assay type: in vivo, mouse
Source text: All animals were housed at the Vincent A. Stabile Research building animal facility at H. Lee Moffitt Cancer Center & Research Institute, which is fully accredited by the Association for Assessment and Accreditation of Laboratory Animal Care International (AAALAC, #434), and are managed in accordance with the Guide for the Care and Use of Laboratory Animals (“The Guide”), the Animal Welfare Regulations Title 9 Code of Federal Regulations Subchapter A, “Animal Welfare”, Parts 1-3 (AWR), the Public Health Service Policy on Humane Care and Use of Laboratory Animals (PHS Policy), and by the USF Institutional Animal Care and Use Committee's Principles and Procedures of Animal Care and Use (IACUC Principles). The experiments and protocols detailed in this study received institutional approval by the Moffitt IACUC (RIS00001625). Four-to-six-week-old female C3H/HeN and male C57BL6 mice were purchased from Charles Rivers Laboratories for the indicated experiments. Four-to-six-week-old male NSG mice from the Lau laboratory breeding colony were used for the indicated experiments. Power calculations were used to determine mouse cohort sizes to detect significant changes in tumor sizes. […] Mouse tumor volumes were measured using length, width and depth divided by 2. […]

HLA-DRB1 = assay: Flow cytometric assessment of cell surface fucosylation and HLA-DRB1 in melanoma cells; assay type: cell-based, human; settings: 250 μM, 72 h; flow cytometry
Description: (§1) Indicated cells were treated for 72 h with DMSO, 250 μM fucosyltransferase inhibitor (FUTi) (Millipore Sigma (St. Louis, MO)), or 250 μM of L-fucose (Biosynth (Oak Terrace, IL)). After 72 h, cells were stained with 0.1 μM PKH26 (Millipore Sigma (St. Louis, MO)) prior to fixation in 4% formaldehyde solution. The cells were stained with anti-HLA-DRB1 and fluorescein AAL, or anti-human or anti-mouse PD-L1 overnight. The following day the cells were washed 3 times prior to adding AlexaFluor 594 donkey anti-rabbit. Cells were washed 3 times and then subject to flow cytometric analyses using a FACSCalibur (BD Biosciences (San Jose, CA)). Samples were analyzed using FlowJo analysis software (BD Biosciences (San Jose, CA)). Median values of DRB1 and AAL were normalized to PKH26 values and statistical analysis was performed using GraphPad Prism.

PD-L1 = assay: Flow cytometric assessment of cell surface PD-L1, human melanoma cells (WM793); assay type: cell-based
Description: as §1

CD209 = assay: DC broad panel analysis and signaling array on phosphorylated proteins; assay type: cell-based
Source text: To better understand the phenotype of DC subsets after L-fucose treatment, we preformed broad panel analysis to highlight unique subsets of DCs, including markers of activation, cross presentation and known signaling mechanisms. […] To determine if this increased expression was related to any other signaling changes we performed a signaling array on key phosphorylated proteins on activated DCs after L-fucose treatment. […] From this, we concluded that L-fucose increases expression of CD209 and modulates downstream signaling paths

In the case of C[C@H](O)[C@@H](O)[C@@H](O)[C@H](O)C=O [L-fucose], the “average # of cDC2 cells” value (SM1 tumors; Day 21, lymph nodes) is reported as 13997.11 per 10^6 cells, the “intratumoral CD4+T central and effector memory cells” value (SM1 tumors; SM1 model, L-fuc alone) is reported as “increased” and the “SW1 tumor growth in immunodeficient mice” value (SW1 tumors) is reported as “did not reduce”. For the same compound, the “cell surface HLA-DRB1” value (HLA-DRB1) was “increased”, the cell surface fucosylation (HLA-DRB1) was “increased” and the “cell surface levels of PD-L1” value (PD-L1) was “does not alter”. For the same compound, the CD209 expression (CD209; DC subsets after L-fucose treatment) was “increase” and the “AKT and PARP (signaling array on phosphorylated proteins)” value (CD209; activated DCs) was “significant decreases”.
